From EP1137645B1, “ALPHA-METHYLBENZYL-CONTAINING THIOUREA INHIBITORS OF HERPES VIRUSES CONTAINING A […] GROUP” (Wyeth, priority 1998, dated 2000)
Values after ≈ are worked out from the molar mass of the structure shown. Read-outs that look alike come from different tables or passages of the source.

How the values were obtained:
[1] = tested on: HSV- I; experiment: HSV antiviral (ELISA) assay; type: cell-based; details: HSV- I, Vero cells, ELISA; read-out: IC50 (ug/ml) HSV
Procedure, shortened: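 IC50 from fluorescence versus untreated control in a cell ELISA: anti-glycoprotein D antibody, β-galactosidase-conjugated secondary, 4-methyl umbelliferone read at 365/450 nm. Vero cells (2% FBS DMEM) received compound 30 min pre-infection with HSV-1 at MOI 0.006, fixed ~24 h post-infection.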

[2] = tested on: HCMV recombinant mutant virus whose genome contains the prokaryotic beta-glucuronidase gene; experiment: microbe, parasite or virus in culture; type: cell-based, human cytomegalovirus; details: Human betaherpesvirus 5, Fibroblast
Procedure, shortened: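 Antiviral IC50 estimated from reduced reporter activity across compound amounts: lysates prepared 96 h after infection were tested with p-nitrophenyl- or methylumbelliferyl-glucuronide. Cells were human foreskin fibroblasts, infected alongside inhibitor with HCMV (e.g. RV145) expressing viral promoter-driven beta-glucuronidase.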

[3] = tested on: VZV strain Ellen; experiment: VZV antiviral (ELISA) assay; type: cell-based; details: for IC50: read-out: IC50 (ug/ml) VZV
Procedure, shortened: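 HFF cells infected with VZV Ellen at multiplicity below 0.1 overnight, then mixed infected/uninfected cells seeded with compound in DMEM/2% FBS and incubated three days at 37°C, 5% CO2.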

[4] = read-out: IC50 ug/ml HCMV, HCMV, human foreskin fibroblasts
[5] = Human alphaherpesvirus 3, HFF, read-out: % inhibition 10 ug/ml VZV
[6] = Human alphaherpesvirus 3, read-out: % inhibition 10 ug/ml VZV, 10 ug/ml, VZV strain Ellen, HFF cells, ELISA
[7] = Human alphaherpesvirus 3, VZV strain Ellen, HFF cells, ELISA

Compound	IC50 [1] [µg/mL]	IC50 [2, 4] [µg/mL]	inhibition at 10 µg/mL [3, 5] [%]	IC50 ([3]; Human alphaherpesvirus 3, HFF) [µg/mL]	IC50 ([2]; read-out: IC50 ug/ml HCMV) [µg/mL]	inhibition at 10 µg/mL [3, 6] [%]	IC50 [3, 7] [µg/mL]
COc1ccc(NC(=S)Nc2ccc(NC(=O)c3ccccc3OC)cc2)cc1Cl [Example 818, N-{4-[3-(3-Chloro-4-methoxy-phenyl)-thioureido]-phenyl}-2-methoxy-benzamide]	1.2 (≈ 2.72 µM)	4 (≈ 9.05 µM)	32	> 10	–	–	–
COc1cccc(C(=O)Nc2ccc(NC(=S)Nc3ccc(OC)c(Cl)c3)cc2)c1 [Example 819, N-{4-[3-(3-Chloro-4-methoxy-phenyl)-thioureido]-phenyl}-3-methoxy-benzamide]	6 (≈ 13.6 µM)	4 (≈ 9.05 µM)	93	2.5 (≈ 5.66 µM)	–	–	–
COc1ccc(C(=O)Nc2ccc(NC(=S)Nc3ccc(OC)c(Cl)c3)cc2)cc1 [Example 820, N-{4-[3-(3-Chloro-4-methoxy-phenyl)-thioureido]-phenyl}-4-methoxy-benzamide]	4 (≈ 9.05 µM)	8 (≈ 18.1 µM)	20	> 10	–	–	–
COc1ccc(NC(=S)Nc2ccc(NC(=O)c3cccc(F)c3)cc2)cc1Cl [Example 822, N-{4-[3-(3-Chloro-4-methoxy-phenyl)-thioureido]-phenyl}-3-fluoro-benzamide]	3 (≈ 6.98 µM)	3 (≈ 6.98 µM)	0	> 10	–	–	–
COc1ccc(NC(=S)Nc2ccc(NC(=O)c3ccc(F)cc3)cc2)cc1Cl [Example 823, N-{4-[3-(3-Chloro-4-methoxy-phenyl)-thioureido]-phenyl}-4-fluoro-benzamide]	6 (≈ 14 µM)	6 (≈ 14 µM)	7	> 10	–	–	–
COc1cc(OC)c(NC(=S)Nc2ccc(NC(=O)c3ccccc3F)cc2)cc1Br [Example 827, N-{4-[3-(5-Bromo-2,4-dimethoxy-phenyl)-thioureido]-phenyl}-2-fluoro-benzamide]	0.2 (≈ 0.397 µM)	10 (≈ 19.8 µM)	70	3.5 (≈ 6.94 µM)	–	–	–
COc1cc(OC)c(NC(=S)Nc2ccc(NC(=O)c3ccccc3C)cc2)cc1Br [Example 829, N-{4-[3-(5-Bromo-2,4-dimethoxy-phenyl)-thioureido]-phenyl}-2-methyl-benzamide]	0.25 (≈ 0.5 µM)	10 (≈ 20 µM)	50	> 15	–	–	–
COc1ccc(C(=O)Nc2ccc(NC(=S)Nc3cc(Br)c(OC)cc3OC)cc2)cc1 [Example 830, N-{4-[3-(5-Bromo-2,4-dimethoxy-phenyl)-thioureido]-phenyl}-4-methoxy-benzamide]	1.5 (≈ 2.9 µM)	> 10	16	> 10	–	–	–
CSc1ccc(NC(=S)Nc2ccc(NC(=O)c3ccccc3F)cc2)cc1Cl [Example 847, N-{4-[3-(3-Chloro-4-methylsulfanyl-phenyl)-thioureido]-phenyl}-2-fluoro-benzamide]	0.4 (≈ 0.897 µM)	0.3 (≈ 0.673 µM)	65	> 10	–	–	–
CSc1ccc(NC(=S)Nc2ccc(NC(=O)c3c(F)cccc3F)cc2)cc1Cl [Example 848, N-{4-[3-(3-Chloro-4-methylsulfanyl-phenyl)-thioureido]-phenyl}-2,6-difluoro-benzamide]	0.085 (≈ 0.183 µM)	0.3 (≈ 0.647 µM)	101	1.3 (≈ 2.8 µM)	–	–	–
COc1cc(C)c(Cl)cc1NC(=S)Nc1ccc(NC(=O)c2ccccc2F)cc1 [Example 849, N-{4-[3-(5-Chloro-2-methoxy-4-methyl-phenyl)-thioureido]-phenyl}-2-fluoro-benzamide]	> 10	> 10	38	> 10	–	–	–
COc1cc(C)c(Cl)cc1NC(=S)Nc1ccc(NC(=O)c2ccccc2C)cc1 [Example 850, N-{4-[3-(5-Chloro-2-methoxy-4-methyl-phenyl)-thioureido]-phenyl}-2-methyl-benzamide]	0.09 (≈ 0.205 µM)	2 (≈ 4.55 µM)	28	5 (≈ 11.4 µM)	–	–	–
CN(C)c1ccc(NC(=S)Nc2ccc(NC(=O)c3ccccc3F)cc2)cc1Cl [Example 852, N-{4-[3-(3-Chloro-4-dimethylamino-phenyl)-thioureido]-phenyl}-2-fluoro-benzamide]	4 (≈ 9.03 µM)	0.6 (≈ 1.35 µM)	80	6.5 (≈ 14.7 µM)	–	–	–
CN(c1ccc(NC(=S)Nc2ccc(NC(=O)c3ccccc3F)cc2)cc1Cl)C1CCN(Cc2ccccc2)C1 (stereo not shown) [Example 857, N-[4-(3-{4-[(1-Benzyl-pyrrolidin-3-yl)-methyl-amino]-3-chloro-phenyl)-thioureido)-phenyl]-2-fluoro-benzamide]	2 (≈ 3.4 µM)	6 (≈ 10.2 µM)	80	7 (≈ 11.9 µM)	–	–	–
O=C(Nc1ccc(NC(=S)Nc2ccccc2)cc1)c1ccccc1F [Example 859, 2-Fluoro-N-[4-(3-phenyl-thioureido)-phenyl]-benzamide]	> 10	–	–	–	> 10	20	> 10
CC(O)c1ccc(NC(=S)Nc2ccc(NC(=O)c3ccccc3F)cc2)cc1Cl (stereo not shown) [Example 865, N-(4-{3-[3-Chloro-4-(1-hydroxy-ethyl)-phenyl]-thioureido}-phenyl)-2-fluoro-benzamide]	4 (≈ 9.01 µM)	0.3 (≈ 0.676 µM)	52	> 10	–	–	–
CC(C)(C)c1cccc(NC(=S)Nc2ccc(NC(=O)c3ccccc3F)cc2)c1 [Example 869, N-{4-[3-(3-tert-Butyl-phenyl)-thioureido]-phenyl}-2-fluoro-benzamide]	5.5 (≈ 13 µM)	2.5 (≈ 5.93 µM)	77	3 (≈ 7.12 µM)	–	–	–
COc1c(Cl)cc(NC(=S)Nc2ccc(NC(=O)c3cccc(F)c3)cc2)cc1Cl [Example 872, N-{4-[3-(3,5-Dichloro-4-methoxy-phenyl)-thioureido]-phenyl}-3-fluoro-benzamide]	4 (≈ 8.61 µM)	0.6 (≈ 1.29 µM)	28	> 10	–	–	–
COc1ccccc1C(=O)Nc1ccc(NC(=S)Nc2cc(Cl)c(OC)c(Cl)c2)cc1 [Example 873, N-{4-[3-(3,5-Dichloro-4-methoxy-phenyl)-thioureido]-phenyl}-2-methoxy-benzamide]	> 10	0.3 (≈ 0.63 µM)	23	> 10	–	–	–
COc1c(Cl)cc(NC(=S)Nc2ccc(NC(=O)c3ccccc3F)cc2)cc1Cl [Example 874, N-{4-[3-(3,5-Dichloro-4-methoxy-phenyl)-thioureido]-phenyl}-2-fluoro-benzamide]	5 (≈ 10.8 µM)	0.2 (≈ 0.431 µM)	75	3.5 (≈ 7.54 µM)	–	–	–
COc1cccc(C(=O)Nc2ccc(NC(=S)Nc3cc(Cl)c(OC)c(Cl)c3)cc2)c1 [Example 875, N-{4-[3-(3,5-Dichloro-4-methoxy-phenyl)-thioureido]-phenyl}-3-methoxy-benzamide]	6 (≈ 12.6 µM)	0.4 (≈ 0.84 µM)	20	> 10	–	–	–
COc1ccc(C(=O)Nc2ccc(NC(=S)Nc3cc(Cl)c(OC)c(Cl)c3)cc2)cc1 [Example 880, N-{4-[3-(3,5-Dichloro-4-methoxy-phenyl)-thioureido]-phenyl}-4-methoxy-benzamide]	> 10	10 (≈ 21 µM)	30	> 10	–	–	–
O=C(Nc1ccc(NC(=S)Nc2ccc(C(F)(F)F)c(Cl)c2)cc1)c1ccccc1F [Example 911, N-{4-[3-(3-Chloro-4-trifluoromethyl-phenyl)-thioureido]-phenyl}-2-fluoro-benzamide]	> 10	8 (≈ 17.1 µM)	38	> 10	–	–	–
O=C(Nc1ccc(NC(=S)Nc2ccc(Cl)c(Cl)c2)cc1)c1ccccc1F [Example 912, N-{4-[3-(3,4-Dichloro-phenyl)-thioureido]-phenyl}-2-fluoro-benzamide]	8 (≈ 18.4 µM)	> 10	21	> 10	–	–	–
O=C(Nc1ccc(NC(=S)Nc2ccc(Br)c(Cl)c2)cc1)c1ccccc1F [Example 915, N-{4-[3-(4-Bromo-3-chloro-phenyl)-thioureido]-phenyl}-2-fluoro-benzamide]	> 10	–	–	–	> 10	29	> 10
O=C(Nc1ccc(NC(=S)Nc2ccc(I)c(Cl)c2)cc1)c1ccccc1F [Example 916, N-{4-[3-(3-Chloro-4-iodo-phenyl)-thioureido]-phenyl}-2-fluoro-benzamide]	> 10	3 (≈ 5.71 µM)	30	> 10	–	–	–
O=C(Nc1ccc(NC(=S)Nc2ccc(F)c(Cl)c2)cc1)c1ccccc1F [Example 922, N-{4-[3-(3-Chloro-4-fluoro-phenyl)-thioureido]-phenyl}-2-fluoro-benzamide]	1 (≈ 2.39 µM)	> 10	40	> 10	–	–	–
O=C(Nc1ccc(NC(=S)Nc2cc(Cl)ccc2Cl)cc1)c1ccccc1F [Example 931, N-{4-[3-(2,5-Dichloro-phenyl)-thioureido]-phenyl}-2-fluoro-benzamide]	4 (≈ 9.21 µM)	> 10	51	> 10	–	–	–
